Values after ≈ are worked out from the molar mass of the structure shown. Like-named read-outs stand apart in the source and are kept apart here.
Experiments:
AsPC-1 p-ERK = test: Cell p-ERK assay (HTRF), AsPC-1 cells; type: cell-based, human
Method in brief: (§1)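 Phospho-ERK (T202/Y204) was measured by HTRF in lysates after 3 h compound treatment at 37 °C. Cells had been plated the previous day at 20000 per well for NCI-H441 and 10000 per well for AsPC-1. Four-parameter dose-response fitting of % inhibition gave IC50 values.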

AsPC-1 cells = test: 3D cell proliferation assay (CellTiter Glo-3D), AsPC-1; type: cell-based, human
Method in brief: (§2)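 IC50 values come from four-parameter fits of inhibition rate against log compound concentration, using CellTiter-Glo luminescence read after 5 days' exposure. AsPC-1 and NCI-H441 were plated at 800 cells per well in low-serum (2% FBS) medium. Compound was dosed the day after seeding, with incubation at 37 °C, 5% CO2.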

KRAS WT-cRAF = KRAS WT-cRAF (Homo sapiens, UniProt P01116+P62937); test: Assay for binding of KRAS to cRAF (HTRF, with Cyclophilin A), KRAS WT
Chain of KRAS WT-cRAF (P01116 1-188 isoform P01116-2): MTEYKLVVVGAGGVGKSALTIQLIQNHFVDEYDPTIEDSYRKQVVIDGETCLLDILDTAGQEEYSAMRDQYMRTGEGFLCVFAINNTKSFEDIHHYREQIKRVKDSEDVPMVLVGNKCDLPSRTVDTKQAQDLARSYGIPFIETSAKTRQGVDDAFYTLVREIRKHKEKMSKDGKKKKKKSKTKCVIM
Chain of KRAS WT-cRAF (P62937 whole entry): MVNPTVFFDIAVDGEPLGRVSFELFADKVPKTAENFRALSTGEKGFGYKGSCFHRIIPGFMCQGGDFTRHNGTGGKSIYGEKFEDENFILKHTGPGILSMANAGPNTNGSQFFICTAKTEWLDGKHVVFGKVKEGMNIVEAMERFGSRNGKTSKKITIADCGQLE
Description: (§3) The plate was centrifuged at 1000 rpm for 1 min and then incubated in the thermostatic incubator at 20 °C for 30 min. […] The plate was centrifuged at 1000 rpm for 1 min and then incubated in the thermostatic incubator at 20 °C for 60 min. […] The working solution was added to the aforementioned assay plate at 5 µL/well. The plate was centrifuged at 1000 rpm for 1 min and then incubated in the thermostatic incubator at 20 °C for 60 min.

NCI-H441 cells = test: 3D cell proliferation assay (CellTiter Glo-3D), NCI-H441; type: cell-based, human; settings: NCI-H441 cells (KRAS G12V), 2% FBS, 5 days, read-out: H441 AP IC50
Method in brief: as §2

KRAS G12V-cRAF = KRAS G12V-cRAF (Homo sapiens, UniProt P01116+P62937, G12V); test: Assay for binding of KRAS to cRAF (HTRF, with Cyclophilin A), KRAS G12V
Chain of KRAS G12V-cRAF (P01116 1-188 isoform P01116-2 G12V): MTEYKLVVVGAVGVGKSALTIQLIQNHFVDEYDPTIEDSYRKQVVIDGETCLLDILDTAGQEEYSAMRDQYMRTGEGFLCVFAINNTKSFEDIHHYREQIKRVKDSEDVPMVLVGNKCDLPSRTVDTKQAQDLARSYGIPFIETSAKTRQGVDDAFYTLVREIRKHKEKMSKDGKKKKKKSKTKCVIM
Chain of KRAS G12V-cRAF (P62937 whole entry): as the sequence (P62937 whole entry) above
Description: as §3

H441 p-ERK = test: Cell p-ERK assay (HTRF), NCI-H441 cells; type: cell-based, human; settings: NCI-H441 cells (KRAS G12V), 3 h incubation
Method in brief: as §1

[1] = Solubility experiment (HPLC, external standard); type: physicochemical; settings: 37 °C, 24 h; for solubility at 24 h: ph 7.4 medium, pH 7.4, pH 7.4 medium; for Solubility at pH 7.4 (µg/mL): pH 7.4 medium
Description: This experiment was intended to determine the solubility of the compounds in media at different pH values. The materials used in the experiment included: a pH 1.2 medium, a pH 4.5 medium, a pH 7.4 medium, and a diluent (acetonitrile/water = 50/50). 1. The preparation methods for media are as follows:
One centrifuge tube (containing about 2 mg of the test sample) was taken, 1 mL of DMSO was added to completely dissolve the test sample, and the mixture was marked as stock-1. 0.2 mL of stock-1 was transferred into a 10 mL volumetric flask, and then the 50:50 (acetonitrile/water) solution was added to bring the volume to the mark, so as to give a control solution.
Additionally, centrifuge tubes each containing about 1 mg of the test sample were taken, 1 mL of the corresponding medium solution was then added, and the tubes were shaken on a 37 °C water bath shaker for 24 h. After centrifugation for 3 times (centrifugation time: 10 min, rotation speed: 12000 rpm), 0.2 mL of the supernatants were taken, 0.8 mL of the diluent (acetonitrile/water = 50/50) was added to each tube, and the mixtures were vortexed and mixed well to give solubility samples.
The solubility samples described above and the control solution were sequentially analyzed by high performance liquid chromatography. The chromatographic conditions are as follows:
The actual concentration of the compound in each solubility sample was calculated according to an external standard method. Concentration (μg/mL) = (ASample × CControl × DSample)/(AControl)∗1000; [formula] Asample: the peak area of the target peak in the sample solution; Ccontrol: the concentration (mg/mL) of the control solution; Dsample: the dilution factor of the sample solution; Acontrol: the peak area of the target peak in the control solution.

[2] = read-out: KRAS WT-cRAF binding assay, GPPNP-KRAS WT, IC50 values
[3] = read-out: KRAS G12V-cRAF binding assay, GPPNP-KRAS G12V, IC50 values

## CCn1c(-c2cc(C#CCN3CCC(C#N)(CN)CC3)c[n+]([O-])c2[C@H](C)OC)c2c3cc(ccc31)-c1csc(n1)C[C@H](NC(=O)[C@H]1[C@@H]3COC[C@@H]31)C(=O)N1CCC[C@H](N1)C(=O)OCC(C)(C)C2 (atropisomer, axis not shown; (Ra)) [Compound Z64-1, (Ra)-3-((6^3S,4S,Z)-4-((1R,5S,6r)-3-oxabicyclo[3.1.0]hexane-6-carboxamido)-1^1-ethyl-10,10-dimethyl-5,7-dioxo-6^1,6^2,6^3,6^4,6^5,6^6-hexahydro-1^1H-8-oxa-2(4,2)-thiazola-1(5,3)-indola-6(1,3)-pyridazinacycloundecaphane-1^2-yl)-5-(3-(4-(aminomethyl)-4-cyanopiperidin-1-yl)prop-1-yn-1-yl)-2-((S)-1-methoxyethyl)pyridine 1-oxide]
AsPC-1 p-ERK; AsPC-1 cells (KRAS G12D), 3 h incubation, read-out: AsPC-1 p-ERK IC50
  IC50: 9.07 nM
AsPC-1 cells; AsPC-1 cells (KRAS G12D), 3D, 2% FBS, 5 days, read-out: AsPC-1 AP IC50
  IC50: 3.77 nM
KRAS WT-cRAF; [2]
  IC50: 31.2 nM
NCI-H441 cells
  IC50: 5.1 nM
KRAS G12V-cRAF; [3]
  IC50: 4.1 nM
H441 p-ERK
  IC50: 5.07 nM

## CCn1c(-c2cc(C#CCN3CCS(=O)(=O)CC3)cnc2[C@H](C)OC)c2c3cc(ccc31)-c1csc(n1)[C@@H](N)[C@H](NC(=O)[C@H]1[C@H](C)[C@@H]1C)C(=O)N1CCC[C@H](N1)C(=O)OCC(C)(C)C2 (atropisomer, axis not shown; (Ra)) [Compound Z65, (1r,2R,3S)-N-((6^3S,3S,4S,Z)-3-amino-(Ra)-1^2-(5-(3-(1,1-dioxidothiomorpholino)prop-1-yn-1-yl)-2-((S)-1-methoxyethyl)pyridin-3-yl)-1^1-ethyl-10,10-dimethyl-5,7-dioxo-6^1,6^2,6^3,6^4,6^5,6^6-hexahydro-11H-8-oxa-2(4,2)-thiazola-1(5,3)-indola-6(1,3)-pyridazinacycloundecaphane-4-yl)-2,3-dimethylcyclopropane-1-carboxamide]
AsPC-1 p-ERK; Homo sapiens, ASPC1, 3 h, read-out: AsPC-1 p-ERK IC50(nM)
  IC50: 0.06 nM
AsPC-1 cells; Homo sapiens, ASPC1, 120 h, read-out: AsPC-1 AP IC50(nM)
  IC50: 0.15 nM
KRAS WT-cRAF; [2]
  IC50: 22.9 nM
NCI-H441 cells; Homo sapiens, 120 h
  IC50: 0.25 nM
KRAS G12V-cRAF; [3]
  IC50: 5 nM
H441 p-ERK; Homo sapiens
  IC50: 0.14 nM

## COCCn1c(-c2cc(C#CCN3CCN(C(=O)CO)CC3)cnc2[C@H](C)OC)c2c3cc(ccc31)-c1csc(n1)C[C@H](NC(=O)[C@H]1[C@@H]3COC[C@@H]31)C(=O)N1CCC[C@H](N1)C(=O)OCC(C)(C)C2 (atropisomer, axis not shown; (Sa)) [Compound Z31-2, (1R,5S,6r)-N-((6^3S,4S,Z)-(Sa)-1^2-(5-(3-(4-(2-hydroxyacetyl)piperazin-1-yl)prop-1-yn-1-yl)-2-((S)-1-methoxyethyl)pyridin-3-yl)-1^1-(methoxyethyl)-10,10-dimethyl-5,7-dioxo-6^1,6^2,6^3,6^4,6^5,6^6-hexahydro-1^1H-8-oxa-2(4,2)-thiazola-1(5,3)-indola-6(1,3)-pyridazinacycloundecaphane-4-yl)-3-oxabicyclo[3.1.0]hexane-6-carboxamide]
[1]
  solubility at 24 h: 22 µg/mL (≈ 23.1 µM)

## COCCn1c(-c2cc(C#CCN3CCN(C(=O)CO)CC3)c[n+]([O-])c2[C@H](C)OC)c2c3cc(ccc31)-c1csc(n1)C[C@H](NC(=O)[C@H]1[C@@H]3COC[C@@H]31)C(=O)N1CCC[C@H](N1)C(=O)OCC(C)(C)C2 (atropisomer, axis not shown; (Sa)) [Compound Z38-2, (Sa)-3-((6^3S,4S,Z)-4-((1R,5S,6r)-3-oxabicyclo[3.1.0]hexane-6-carboxamido)-1^1-(2-methoxyethyl)-10,10-dimethyl-5,7-dioxo-6^1,6^2,6^3,6^4,6^5,6^6-hexahydro-11H-8-oxa-2(4,2)-thiazola-1(5,3)-indola-6(1,3)-pyridazinacycloundecaphane-1^2-yl)-5-(3-(4-(2-hydroxyacetyl)piperazin-1-yl)prop-1-yn-1-yl)-2-((S)-1-methoxyethyl)pyridine-1-oxide]
[1]
  solubility at 24 h: 176 µg/mL (≈ 182 µM)

## CCn1c(-c2cc(C#CCN3CCC(C#N)(CO)CC3)c[n+]([O-])c2[C@H](C)OC)c2c3cc(ccc31)-c1csc(n1)C[C@H](NC(=O)[C@H]1[C@H](C)[C@@H]1C)C(=O)N1CCC[C@H](N1)C(=O)OCC(C)(C)C2 (atropisomer, axis not shown; (Sa)) [Compound Z45-2, 5-(3-(4-cyano-4-(hydroxymethyl)piperidin-1-yl)prop-1-yn-1-yl)-(Sa)-3-((6^3S,4S,Z)-4-((1r,2R,3S)-2,3-dimethylcyclopropane-1-carboxamido)-1^1-ethyl-10,10-dimethyl-5,7-dioxo-6^1,6^2,6^3,6^4,6^5,6^6-hexahydro-1^1H-8-oxa-2(4,2)-thiazola-1(5,3)-indola-6(1,3)-pyridazinacycloundecaphane-1^2-yl)-2-((S)-1-methoxyethyl)pyridine 1-oxide]
[1]; 1440 min
  Solubility at pH 7.4 (µg/mL): 8.42 µg/mL

## COCCn1c(-c2cc(C#CCN3CCN(C(=O)CO)CC3)cnc2[C@H](C)OC)c2c3cc(ccc31)-c1csc(n1)C[C@H](NC(=O)[C@H]1[C@H](C)[C@@H]1C)C(=O)N1CCC[C@H](N1)C(=O)OCC(C)(C)C2 (atropisomer, axis not shown; (Sa)) [Compound Z63-2, (2R,3S)-N-((6^3S,4S,Z)-1^2-(5-(3-(4-(2-hydroxyacetyl)piperazin-1-yl)prop-1-yn-1-yl)-(Sa)-2-((S)-1-methoxyethyl)pyridin-3-yl)-1^1-(2-methoxyethyl)-10,10-dimethyl-5,7-dioxo-6^1,6^2,6^3,6^4,6^5,6^6-hexahydro-1^1H-8-oxa-2(4,2)-thiazola-1(5,3)-indola-6(1,3)-pyridazinacycloundecaphane-4-yl)-2,3-dimethylcyclopropane-1-carboxamide]
[1]; 1440 min
  Solubility at pH 7.4 (µg/mL): 15.37 µg/mL

## CCn1c(-c2cc(C#CCN3CCS(=O)(=O)CC3)cnc2[C@H](C)NC)c2c3cc(ccc31)-c1csc(n1)C[C@H](NC(=O)[C@H]1[C@H](C)[C@@H]1C)C(=O)N1CCC[C@H](N1)C(=O)OCC(C)(C)C2 (atropisomer, axis not shown; (Sa)) [Compound Z66-1, (1r,2R,3S)-N-((6^3S,4S,Z)-(Sa)-1^2-(5-(3-(1,1-dioxidothiomorpholino)prop-1-yn-1-yl)-2-((S)-1-(methylamino)ethyl)pyridin-3-yl)-11-ethyl-10,10-dimethyl-5,7-dioxo-6^1,6^2,6^3,6^4,6^5,6^6-hexahydro-1^1H-8-oxa-2(4,2)-thiazola-1(5,3)-indola-6(1,3)-pyridazinacycloundecaphane-4-yl)-2,3-dimethylcyclopropane-1-carboxamide]
[1]
  Solubility at pH 7.4 (µg/mL): 158.5 µg/mL

## COCCn1c(-c2cc(C#CCN3CCC(C#N)(CO)CC3)cnc2C(C)OC)c2c3cc(ccc31)-c1csc(n1)CC(NC(=O)C1C(C)C1C)C(=O)N1CCCC(N1)C(=O)OCC(C)(C)C2 [Compound Z29, (1r,2R,3S)-N-((6^3S,4S,Z)-1^2-(5-(3-(4-cyano-4-(hydroxymethyl)piperidin-1-yl)prop-1-yn-1-yl)-2-((S)-1-methoxyethyl)pyridin-3-yl)-1^1-(methoxyethyl)-10,10-dimethyl-5,7-dioxo-6^1,6^2,6^3,6^4,6^5,6^6-hexahydro-1^1H-8-oxa-2(4,2)-thiazola-1(5,3)-indola-6(1,3)-pyridazinacycloundecaphane-4-yl)-2,3-dimethylcyclopropane-1-carboxamide]
AsPC-1 p-ERK; Homo sapiens, ASPC1, AsPC-1 cells (KRAS G12D), 3 h incubation, read-out: AsPC-1 p-ERK IC50
  IC50: 0.07 nM
AsPC-1 cells; Homo sapiens, ASPC1, 120 h, AsPC-1 cells (KRAS G12D), 3D, 2% FBS, 5 days, read-out: AsPC-1 AP IC50
  IC50: 0.09 nM
KRAS WT-cRAF; KRAS WT-cRAF binding assay(nM), GPPNP-KRAS WT, IC50 values
  IC50: 37 nM
NCI-H441 cells; Homo sapiens, 120 h
  IC50: 0.21 nM
KRAS G12V-cRAF; KRAS G12V-cRAF binding assay(nM), GPPNP-KRAS G12V, IC50 values
  IC50: 18.5 nM
H441 p-ERK; Homo sapiens
  IC50: 0.38 nM

— patent EP4775582A1, “MACROCYCLIC COMPOUND AND ANTIBODY-DRUG CONJUGATE THEREOF” (Genfleet Therapeutics (Shanghai) Inc., priority 2023, dated 2025)
